Data taken from patent US12415794B2 (Edgewise Therapeutics, Inc., priority 2018, dated 2025).

Legend:
[1] = molecular target: skeletal myofibrils (myosin ATPase); test: Skeletal Myofibril ATPase Assay; format: biochemical
Protocol: FIG. 7 depicts the buffer preparation procedures of Buffer A and Buffer B for the skeletal myofibril ATPase assay described in Example 12. Buffers were stored on ice until use.
Example 12: Skeletal Myofibril ATPase Assay
(§1) Overview: Myosin ATPase activity is assessed by using a coupled reaction system, in which ADP generated by the myosin ATPase function is coupled to the disappearance of NADH through the pyruvate kinase/lactate dehydrogenase (PK-LDH) system. ATPase activity produces ADP, which is used as a substrate for PK to produce pyruvate and regenerate ATP. The pyruvate is then used as a substrate by LDH to oxidize NADH to NAD+. The rate of the reaction is monitored through the time-dependent disappearance of NADH using absorbance at 340 nm. Inhibition of ATPase activity by the assayed compounds is indicated by a reduced rate of NADH loss, relative to vehicle-treated controls, over the experimental time window. To assess the selectivity of the assayed compounds for skeletal myofibrils, the compounds are counter-screened in cardiac myofibrils.
Materials: The following stock solutions and reagents were used in the Skeletal Myofibril ATPase Assay:
Stock Solutions of pCa buffer. Combine PIPES, CaCl2, and EGTA solutions with 70 mL of water. Adjust pH to 7.0 and bring final volume to 100 mL.
Skeletal Myofibril ATPase Assay Procedure: BSA, ATP, NADH, PEP, and DTT solutions were thawed at room temperature, then transferred to ice. Pellet-frozen myofibrils were transferred with approximately twice the required volume into a sufficiently large tube and capped. Myofibrils were thawed by rolling in a water bath for approximately 15 min at room temperature and cooled on ice. Buffers A and B were prepared by adjusting volumes as necessary for required number of wells and stored on ice. 0.5 μL of the compounds to be assayed were added into wells. 25 μL of Buffer A was dispensed into the wells, followed by 25 μL of Buffer B. The wells were measured for absorbance at 340 nm, using a kinetic protocol in which the wells are read every 1.5-2 min for 45 min. The slope of the data was approximated by subtracting the minimum absorbance value from the maximum value for each well. This was accomplished either in the SoftMax Pro software or in a spreadsheet program such as Excel. Using GraphPad Prism 8.0, the data was normalized by assigning a value of 100% to the 1% DMSO vehicle wells. Typically, a normalized 0% value was simply assigned to a (Max−Min) value of 0. The normalized data was fit to a Four Parameter Logistic sigmoidal equation, constraining the bottom to be 0 or greater. Compounds of Table 1, 2, and 3 were tested and results of the assay appear in Tables 4a-4c. A=IC50 is less than or equal to 10 μM; B=IC50 is greater than 10 μM and less than 100 μM; C=IC50 is greater than 100 μM.

[2] = molecular target: T1, cardiac myofibrils (myosin ATPase); test: Cardiac Myofibril ATPase Assay (counter screen); format: biochemical; conditions: myofibrils 1.0 mg/mL, KCl omitted
T1 construct: frozen myofibril pellets obtained from cardiac tissue; from tissue
Protocol: as §1
Example 13: Cardiac Myofibril ATPase Assay
Following example 11, the counter screen was done using frozen myofibril pellets obtained from cardiac tissue. The assay was done in the same manner as above, with the following notable exceptions: the final well concentration of myofibrils was 1.0 mg/mL and KCl was omitted from the recipe.
Compounds of Table 1 to 3 were tested, and results of the assays appear in Tables 5a-5c herein. A=IC50 is less than or equal to 10 μM; B=IC50 is greater than 10 μM and less than 100 μM; C=IC50 is greater than 100 μM; and […].

T1 sequence (P12883 whole entry): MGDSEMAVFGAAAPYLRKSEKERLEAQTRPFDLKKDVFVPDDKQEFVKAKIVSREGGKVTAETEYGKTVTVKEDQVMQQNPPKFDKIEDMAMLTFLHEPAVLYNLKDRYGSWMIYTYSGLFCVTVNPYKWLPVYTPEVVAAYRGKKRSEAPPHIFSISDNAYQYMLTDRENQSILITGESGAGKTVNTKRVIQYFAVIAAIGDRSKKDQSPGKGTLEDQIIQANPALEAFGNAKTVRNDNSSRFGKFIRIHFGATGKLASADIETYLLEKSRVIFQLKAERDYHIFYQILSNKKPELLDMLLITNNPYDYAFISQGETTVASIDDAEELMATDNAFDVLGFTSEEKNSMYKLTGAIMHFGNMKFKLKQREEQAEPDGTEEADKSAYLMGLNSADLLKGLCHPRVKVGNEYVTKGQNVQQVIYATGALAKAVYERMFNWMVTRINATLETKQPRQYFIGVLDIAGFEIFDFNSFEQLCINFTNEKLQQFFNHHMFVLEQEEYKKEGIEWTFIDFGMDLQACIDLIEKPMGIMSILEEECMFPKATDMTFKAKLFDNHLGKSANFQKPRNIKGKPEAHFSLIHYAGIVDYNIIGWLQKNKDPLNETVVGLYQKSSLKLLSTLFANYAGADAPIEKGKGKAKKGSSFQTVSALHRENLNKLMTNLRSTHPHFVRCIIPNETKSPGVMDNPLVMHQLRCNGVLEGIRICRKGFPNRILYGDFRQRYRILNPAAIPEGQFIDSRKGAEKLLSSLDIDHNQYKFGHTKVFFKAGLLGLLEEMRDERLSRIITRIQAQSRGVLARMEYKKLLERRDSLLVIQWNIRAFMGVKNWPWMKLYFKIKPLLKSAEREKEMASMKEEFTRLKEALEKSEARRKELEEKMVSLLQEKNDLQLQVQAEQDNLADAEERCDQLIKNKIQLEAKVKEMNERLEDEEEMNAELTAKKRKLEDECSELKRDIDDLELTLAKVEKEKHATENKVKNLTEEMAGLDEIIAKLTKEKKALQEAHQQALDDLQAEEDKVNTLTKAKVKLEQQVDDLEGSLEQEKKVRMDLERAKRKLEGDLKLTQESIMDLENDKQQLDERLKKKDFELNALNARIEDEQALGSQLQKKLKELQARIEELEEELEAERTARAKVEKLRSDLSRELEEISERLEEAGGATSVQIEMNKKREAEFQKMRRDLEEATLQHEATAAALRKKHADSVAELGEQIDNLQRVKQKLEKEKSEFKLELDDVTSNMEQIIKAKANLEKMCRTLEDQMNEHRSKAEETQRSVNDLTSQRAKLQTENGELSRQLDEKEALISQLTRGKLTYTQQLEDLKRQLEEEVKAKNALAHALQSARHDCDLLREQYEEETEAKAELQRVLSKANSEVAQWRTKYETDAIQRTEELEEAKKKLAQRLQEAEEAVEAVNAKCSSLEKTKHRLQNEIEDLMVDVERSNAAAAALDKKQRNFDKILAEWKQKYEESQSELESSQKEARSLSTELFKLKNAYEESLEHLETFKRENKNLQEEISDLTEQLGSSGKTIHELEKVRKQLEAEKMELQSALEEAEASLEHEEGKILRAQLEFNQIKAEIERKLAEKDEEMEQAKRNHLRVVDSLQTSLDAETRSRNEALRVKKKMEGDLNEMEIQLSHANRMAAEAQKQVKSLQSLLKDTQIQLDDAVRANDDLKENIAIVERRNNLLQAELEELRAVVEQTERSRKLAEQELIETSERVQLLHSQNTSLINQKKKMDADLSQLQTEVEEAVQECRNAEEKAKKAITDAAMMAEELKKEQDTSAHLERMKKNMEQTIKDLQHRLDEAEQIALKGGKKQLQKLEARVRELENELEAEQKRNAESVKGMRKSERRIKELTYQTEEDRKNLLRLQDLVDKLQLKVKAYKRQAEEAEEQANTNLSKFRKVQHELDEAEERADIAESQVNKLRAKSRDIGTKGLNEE
T1 sequence (P08590 whole entry partner): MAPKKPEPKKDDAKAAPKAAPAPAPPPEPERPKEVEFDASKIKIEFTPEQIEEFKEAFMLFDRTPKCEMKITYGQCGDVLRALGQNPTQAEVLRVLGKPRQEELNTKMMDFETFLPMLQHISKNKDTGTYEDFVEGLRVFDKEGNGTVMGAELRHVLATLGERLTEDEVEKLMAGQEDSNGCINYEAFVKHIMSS
T1 sequence (P10916 whole entry partner): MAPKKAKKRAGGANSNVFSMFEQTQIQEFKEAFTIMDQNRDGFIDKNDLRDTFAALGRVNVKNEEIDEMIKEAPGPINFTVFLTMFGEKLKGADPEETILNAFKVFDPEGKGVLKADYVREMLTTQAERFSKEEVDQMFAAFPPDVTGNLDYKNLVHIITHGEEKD

IC50 ([1]; Table 4C)	IC50 ([2]; Table 5C)	IC50 ([1]; Table 4A)	IC50 ([2]; Table 5A)	Structure (SMILES)	also measured
< 10 µM	> 100 µM	–	–	COc1ccc(-c2ccc(=O)n(CC(=O)NCc3cc(F)ccc3Cl)n2)cc1 [IIIa-7, N-(2-chloro-5-fluorobenzyl)-2-(3-(4-methoxyphenyl)-6-oxopyridazin-1(6H)-yl)acetamide]	–
10 to 100 µM	> 100 µM	–	–	O=C(Cn1nc(-c2ccccc2)ccc1=O)NCc1ccccc1Cl [IIIc-47, N-(2-chlorobenzyl)-2-(6-oxo-3-phenylpyridazin-1(6H)-yl)acetamide]	–
10 to 100 µM	> 100 µM	–	–	Cc1ccc(-c2ccc(=O)n(CC(=O)NC3CCCC3)n2)cc1 [IIIc-5, N-cyclopentyl-2-(6-oxo-3-(p-tolyl)pyridazin-1(6H)-yl)acetamide]	–
10 to 100 µM	> 100 µM	–	–	COc1ccc(-c2ccc(=O)n(CC(=O)Nc3cc(OC)ccc3OC)n2)cc1 [IIIb-25, N-(2,5-dimethoxyphenyl)-2-(3-(4-methoxyphenyl)-6-oxopyridazin-1(6H)-yl)acetamide]	–
–	–	–	–	O=C(Cn1nc(-c2ccc(OC(F)F)cc2)ccc1=O)NC1CCC1 [II-9, N-cyclobutyl-2-(3-(4-(difluoromethoxy)phenyl)-6-oxopyridazin-1(6H)-yl)acetamide]	IC50 ([1]; Table 4B): < 10 µM; IC50 ([2]; Table 5B): > 100 µM
–	–	< 10 µM	> 100 µM	CCNC(=O)Cn1nc(-c2ccc(NC(C)(C)C)nc2)ccc1=O [Compound I-53, 2-(3-(6-(tert-butylamino)pyridin-3-yl)-6-oxopyridazin-1(6H)-yl)-N-ethylacetamide]	–
< 10 µM	> 100 µM	–	–	CCc1ccc(-c2ccc(=O)n(CC(=O)NCc3ccccc3Cl)n2)cc1 [IIIa-18, N-(2-chlorobenzyl)-2-(3-(4-ethylphenyl)-6-oxopyridazin-1(6H)-yl)acetamide]	–
–	–	< 10 µM	> 100 µM	O=C(Cn1nc(-c2ccc(OC(F)F)nc2)ccc1=O)NCc1ccccc1Cl [Compound I-69, N-(2-chlorobenzyl)-2-(3-(6-(difluoromethoxy)pyridin-3-yl)-6-oxopyridazin-1(6H)-yl)acetamide]	–
–	–	–	–	O=C(Cn1nc(-c2ccc(OC(F)F)cc2)ccc1=O)NCC(F)F [II-15, N-(2,2-difluoroethyl)-2-(3-(4-(difluoromethoxy)phenyl)-6-oxopyridazin-1(6H)-yl)acetamide]	IC50 ([1]; Table 4B): 10 to 100 µM; IC50 ([2]; Table 5B): > 100 µM
< 10 µM	> 100 µM	–	–	O=C(Cn1nc(-c2ccccc2)ccc1=O)Nc1ccc2[nH]ccc2c1 [IIIc-49, N-(1H-indol-5-yl)-2-(6-oxo-3-phenylpyridazin-1(6H)-yl)acetamide]	–
10 to 100 µM	> 100 µM	–	–	O=C(Cn1nc(-c2ccc(Cl)cc2)ccc1=O)Nc1ccccc1F [IIIc-27, 2-(3-(4-chlorophenyl)-6-oxopyridazin-1(6H)-yl)-N-(2-fluorophenyl)acetamide]	–
–	–	10 to 100 µM	> 100 µM	CCNC(=O)Cn1nc(-c2ccc(N3CCC34COC4)nc2)ccc1=O [Compound I-19, 2-(3-(6-(6-oxa-1-azaspiro[3.3]heptan-1-yl)pyridin-3-yl)-6-oxopyridazin-1(6H)-yl)-N-ethylacetamide]	–
> 100 µM	> 100 µM	–	–	COc1ccc(-c2ccc(=O)n(CC(=O)NCc3nccn3C)n2)cc1 [IIIa-33, 2-(3-(4-methoxyphenyl)-6-oxopyridazin-1(6H)-yl)-N-((1-methyl-1H-imidazol-2-yl)methyl) acetamide]	–
< 10 µM	> 100 µM	–	–	COc1ccc(-c2ccc(=O)n(CC(=O)NCc3ccccc3C(F)(F)F)n2)cc1 [IIIa-11, 2-(3-(4-methoxyphenyl)-6-oxopyridazin-1(6H)-yl)-N-(2-(trifluoromethyl)benzyl)acetamide]	–
< 10 µM	> 100 µM	–	–	COc1ccc(-c2ccc(=O)n(CC(=O)Nc3ccc4c(c3)OCCO4)n2)c(F)c1 [IIIb-15, N-(2,3-dihydrobenzo[b][1,4]dioxin-6-yl)-2-(3-(2-fluoro-4-methoxyphenyl)-6-oxopyridazin-1(6H)-yl)acetamide]	–
–	–	< 10 µM	> 100 µM	CCNC(=O)Cn1nc(-c2ccc(NC34CC(C3)C4)nc2)ccc1=O [Compound I-36, 2-(3-(6-(bicyclo[1.1.1]pentan-1-ylamino)pyridin-3-yl)-6-oxopyridazin-1(6H)-yl)-N-ethylacetamide]	–
–	–	10 to 100 µM	> 100 µM	CCNC(=O)Cn1nc(-c2ccc(OCC3(F)COC3)nc2)ccc1=O [Compound I-23, N-ethyl-2-(3-(6-((3-fluorooxetan-3-yl)methoxy)pyridin-3-yl)-6-oxopyridazin-1(6H)-yl)acetamide]	–
–	–	10 to 100 µM	> 100 µM	CC(C)[C@@](C)(C#N)NC(=O)Cn1nc(-c2ccc(OC(F)F)nc2)ccc1=O (stereo in doubt) [Compound I-34, N-(2-cyano-3-methylbutan-2-yl)-2-(3-(6-(difluoromethoxy)pyridin-3-yl)-6-oxopyridazin-1(6H)-yl)acetamide]	–
–	–	–	–	O=C(Cn1nc(-c2ccc(OC(F)F)cc2)ccc1=O)NCC1CCC1 [II-18, N-(cyclobutylmethyl)-2-(3-(4-(difluoromethoxy)phenyl)-6-oxopyridazin-1(6H)-yl)acetamide]	IC50 ([1]; Table 4B): 10 to 100 µM; IC50 ([2]; Table 5B): > 100 µM
10 to 100 µM	> 100 µM	–	–	COc1ccc(-c2ccc(=O)n(CC(=O)Nc3ccc(Cl)cc3Cl)n2)c(F)c1 [IIIb-35, N-(2,4-dichlorophenyl)-2-(3-(2-fluoro-4-methoxyphenyl)-6-oxopyridazin-1(6H)-yl)acetamide]	–
< 10 µM	10 to 100 µM	–	–	COc1ccc(-c2ccc(=O)n(CC(=O)Nc3cccc4c3ccn4C)n2)cc1 [IIIb-4, 2-(3-(4-methoxyphenyl)-6-oxopyridazin-1(6H)-yl)-N-(1-methyl-1H-indol-4-yl)acetamide]	–
–	–	10 to 100 µM	> 100 µM	CCNC(=O)Cn1nc(-c2ccc(Oc3ccc(F)cc3)nc2)ccc1=O [Compound I-21, N-ethyl-2-(3-(6-(4-fluorophenoxy)pyridin-3-yl)-6-oxopyridazin-1(6H)-yl)acetamide]	–
10 to 100 µM	> 100 µM	–	–	COc1ccc(-c2ccc(=O)n(CC(=O)NCC(C)C)n2)cc1 [IIIb-29, N-isobutyl-2-(3-(4-methoxyphenyl)-6-oxopyridazin-1(6H)-yl)acetamide]	–
–	–	10 to 100 µM	> 100 µM	CCNC(=O)Cn1nc(-c2ccc(N3CC(C)(C)C3)nc2)ccc1=O [Compound I-18, 2-(3-(6-(3,3-dimethylazetidin-1-yl)pyridin-3-yl)-6-oxopyridazin-1(6H)-yl)-N-ethylacetamide]	–
–	–	10 to 100 µM	> 100 µM	CCNC(=O)Cn1nc(-c2ccc(N3CC(OC(F)F)C3)nc2)ccc1=O [Compound I-55, 2-(3-(6-(3-(difluoromethoxy)azetidin-1-yl)pyridin-3-yl)-6-oxopyridazin-1(6H)-yl)-N-ethylacetamide]	–
–	–	–	–	CCNC(=O)Cn1nc(-c2ccc(OC(F)F)cc2)ccc1=O [II-10, 2-(3-(4-(difluoromethoxy)phenyl)-6-oxopyridazin-1(6H)-yl)-N-ethylacetamide]	IC50 ([1]; Table 4B): < 10 µM; IC50 ([2]; Table 5B): > 100 µM
–	–	10 to 100 µM	> 100 µM	O=C(Cn1nc(-c2ccc(OC(F)F)nc2)ccc1=O)NC12CC(C1)C2 [Compound I-11, N-(bicyclo[1.1.1]pentan-1-yl)-2-(3-(6-(difluoromethoxy)pyridin-3-yl)-6-oxopyridazin-1(6H)-yl)acetamide]	–
< 10 µM	> 100 µM	–	–	COc1ccc(-c2ccc(=O)n(CC(=O)NCCc3ccccc3)n2)c(F)c1 [IIIb-9, 2-(3-(2-fluoro-4-methoxyphenyl)-6-oxopyridazin-1(6H)-yl)-N-phenethylacetamide]	–
